Assay results: patent US5599839A, “Antiviral composition” (The United States of America as represented by the …, priority 1995, dated 1997)
Where two headings read alike, the source gives them in different places.

How the values were obtained:
CEM-SS cells [1] = type: cell-based, human
From the text: (§1) Cancer Inst. […] Cancer Inst. 81:1254-1258, (1989)] but with several modifications.
(§2) Philadelphia: Lippincott, 1988, pp. 305-317; Weislow et al.: J. Nat. Cancer Inst. […] Cancer Inst. 81:1254-1258, (1989)].

in vitro = conditions: human, cem-ss cells
Experimental: (§3) Trypan blue dye exclusion was employed for secondary evaluation of drug toxicity and antiviral protection over time. A 50 μl aliquot of cells was removed from each test well and mixed with 100 μl of 0.4% trypan blue. The percentage of viable cells was determined microscopically by direct hemocytometer counts.

CEM-SS cells [2] = experiment: in vitro; conditions: HIV-1-infected, prostratin-treated (FIG. 4)
Experimental: as §3

CEM-SS cells [3] = type: binding, human; conditions: for Ki: read-out: Ki, inhibition of [3H]PDBu binding to CEM cells
Experimental: (§4) Incubation was for 30 min at 37° C., after which the cells were chilled, an aliquot removed to determine total counts, and bound counts determined by filtration.
Binding affinities of phorbol esters in cells are typically lower than those obtained with reconstituted protein kinase C [Blumberg et al.: in Mechanism of Tumor Promotion, Vol. 3. Tumor Promotion and Cocarcinogenesis in vitro, (Slaga T. J., ed.) Boca Raton, Fla.: CRC Press, 1984, pp. 143-184], presumably reflecting the role of cellular calcium and phospholipid composition on binding [Konig et al.: J. Cell. Biochem. 7:255-265, (1985)]. […] The usual binding protocol were cells omits serum, because of reportedly variable effects of serum on binding [Blumberg et al.: in Mechanism of Tumor Promotion, Vol. 3. Tumor Promotion and Cocarcinogenesis in vitro, (Slaga T. J., ed.) Boca Raton, Fla.: CRC Press, 1984, pp. 143-184].

[4] = cited from earlier work
HIV-1 p24 = experiment: microbe, parasite or virus in culture; conditions: Human immunodeficiency virus 1, 144 h, read-out: Concentration at which p24 viral antigen production is strikingly inhibited (as low as)
Experimental: (§5) The XTT-tetrazolium anti-HIV assay was performed on crude extracts, chromatographic fractions and pure compounds as previously described [Weislow et al.: J. Nat. Cancer Inst. 81:577-586, (1989) and Gustafson et al.: J. Nat. Cancer Inst. 81:1254-1258, (1989)] but with several modifications. The human T-lymphoblastic cell line CEM-SS [Nara et al.: AIDS Res. Hum. […] Concentrated pellets of CEM-SS cells were incubated with the free virus for 1 hour at 37° C. The cells were then diluted and inoculated into round-bottomed 96-well microtiter plates (Corning) at a density of 5000 cells/well. Test compounds and the appropriate controls were then added to the wells, and the plates were incubated for 6 days. At the end of the incubation period cell growth parameters and HIV-1 activities were determined.
(§6) Aliquots of supernatant fluid from the test wells of the tetrazolium assay were removed prior to the time of XTT addition for quantitation of residual infectious virus using the syncytium assay described by Nara et al. [Nara et al.: AIDS Res. Hum. Retroviruses 3:283:302, (1987)].

[5] = test system: HIV-1 (RF variant) in CEM-SS cells; experiment: microbe, parasite or virus in culture; conditions: Human immunodeficiency virus 1, CEM-SS, 144 h, read-out: Concentration at which syncytium formation (infectious virions) is strikingly inhibited (as low as)
Experimental: as §5, §6

C3H10T1/2 cells [6] = experiment: Inhibition of 125I-epidermal growth factor binding in C3H10T1/2 cells; type: cell-based
From the text: (§7) Well-characterized biological responses to the phorbol esters include inhibition of binding of epidermal growth factor and release of arachidonic acid metabolites [Dell'Aquila et al.: Cancer Res. 48:3702-3708, (1988)].

C3H10T1/2 cells [7] = experiment: Release of [3H]arachidonic acid metabolites in C3H10T1/2 cells; type: cell-based; conditions: Mus musculus, C3H 10T1/2, read-out: Half-maximally effective concentration, release of arachidonic acid metabolites
From the text: as §7

protein kinase C = experiment: [3H]PDBu binding to partially purified protein kinase C; conditions: read-out: Ki, competition of [3H]PDBu binding to protein kinase C; for comparison; mean±range, 2 experiments
Experimental: as §4

[8] = test system: HIV-1 (RF variant) in CEM-SS cells; experiment: XTT-tetrazolium anti-HIV assay (HIV-1-infected CEM-SS cells); type: cell-based; conditions: 50 nM
From the text: as §1, §2

CC(=O)O[C@@]12C[C@@H](C)[C@@]3(O)[C@@H](C=C(CO)C[C@]4(O)C(=O)C(C)=C[C@@H]34)[C@@H]1C2(C)C [prostratin]
Growth-inhibitory (cytostatic) effect on uninfected control cultures (CEM-SS cells [1]; 1.0-200 μg/ml, uninfected CEM-SS, 6 days): marked growth-inhibitory, or cytostatic, effect | viability (in vitro): > 90% | Cell viability, infected cultures (CEM-SS cells [2]): greater than 90% | Ki (CEM-SS cells [3]; 10% fetal calf serum, one experiment): 190 nM | Ki (CEM-SS cells [3]; without serum, 30 min at 37° C, mean±range, 2 experiments): 210 ± 30 nM | Tumor promoting activity ([4]; general statement, no test described): substantially lacks tumor promoting activity | Tumor promoting activity ([4]; reported, Zayed et al. 1977): not a tumor promoter | minimal effective concentration (HIV-1 p24): ≤ 1 µg/mL | minimal effective concentration [5]: ≤ 1 µg/mL | Inhibition of binding of epidermal growth factor (C3H10T1/2 cells [6]): induces both of these responses | EC50 (C3H10T1/2 cells [7]): 1100 nM

CCCC(=O)O[C@@H]1[C@@H](C)[C@@]2(O)[C@@H](C=C(CO)C[C@]3(O)C(=O)C(C)=C[C@@H]23)[C@@H]2C(C)(C)[C@]12OC(=O)CCC [PDBu, phorbol 12,13-dibutyrate, reference compound]
EC50 (C3H10T1/2 cells [7]): 24 nM

CC1=C[C@H]2[C@@]3(O)[C@H](C)C[C@]4(OC(=O)C(C)C)[C@H]([C@@H]3C=C(CO)C[C@]2(O)C1=O)C4(C)C [12-deoxyphorbol 13-isobutyrate]
Ki (protein kinase C): 2.1 ± 0.1 nM

CCCCCCCCCCCCCC(=O)O[C@@H]1[C@@H](C)[C@@]2(O)[C@@H](C=C(CO)C[C@]3(O)C(=O)C(C)=C[C@@H]23)[C@@H]2C(C)(C)[C@]12OC(C)=O [PMA, phorbol 12-myristate 13-acetate, reference compound]
Cytostatic effect (CEM-SS cells [1]; 50 nM): cytostatic | Protection against HIV-1 [8]: protective against HIV-1

[^3 H]phorbol 12,13-dibutyrate [[^3 H]PDBu, reference compound]
Bmax in CEM-SS cells (CEM-SS cells [3]; mean±range, 2 experiments): 1.2±0.1 pmol/mg protein | Kd (CEM-SS cells [3]; mean±range, 2 experiments, read-out: Binding affinity in CEM-SS cells): 4.9 ± 0.8 nM
